From ChEMBL document CHEMBL6074716, “Discovery of SET domain-binding primary alkylamine-tethered degraders for the simultaneous degradation of NSD2-long and RE-IIBP isoforms” (Eur J Med Chem, 2025)
Converted amounts (≈) assume the structure as drawn. The source made the active and inactive calls. No cut-off for these calls is given here.

Columns and labels:
[1] = biological target: von Hippel-Lindau disease tumor suppressor/Histone-lysine N-methyltransferase NSD2 (Homo sapiens) (UniProt O96028+P40337); test: PROTAC activity at VHL/NSD2 in human KMS-11 cells assessed as induction of protein degradation upto 50 uM by Western blot analysis; format: cell-based
KMS-11 [2] = test: Induction of primary alkylamine-tethering degradation of NSD2 in human KMS-11 cells at 1 to 4 uM by Western blot analysis; format: cell-based; settings: dose 1-4 µM
[3] = Metabolic stability in human liver microsomes assessed as hepatic extraction ratio at 1 uM preincubated for 5 mins followed by NADPH addition measured for 5 to 60 mins by LC-MS/MS analysis; format: ADME, Microsome; settings: time 10-65 min, read-out: ERH
KMS-11 [4] = test: Antiproliferative activity against human KMS-11 cells assessed as inhibition of cell viability incubated for 8 to 12 days by Cell Titer Glo assay; format: functional, cell-based
[5] = Antiproliferative activity against HEK293T cells assessed as inhibition of cell viability incubated for 8 to 12 days by Cell Titer Glo assay; format: toxicity, cell-based, HEK-293T; settings: human
[6] = Metabolic stability in human liver microsomes assessed as half life at 1 uM preincubated for 5 mins followed by NADPH addition measured for 5 to 60 mins by LC-MS/MS analysis; format: ADME, Microsome; settings: time 10-65 min
[7] = Solubility of compound in water measured after 4 hrs by HPLC analysis; format: physicochemical
[8] = Metabolic stability in human liver microsomes assessed as hepatic clearance at 1 uM preincubated for 5 mins followed by NADPH addition measured for 5 to 60 mins by LC-MS/MS analysis; format: ADME, Microsome; settings: time 10-65 min
KMS-11 [9] = test: Induction of primary alkylamine-tethering degradation of NSD2 in human KMS-11 cells assessed as decrease in H3K36 methylation upto 2.5 uM by Western blot analysis; format: cell-based
KMS-11 [10] = test: Induction of primary alkylamine-tethering degradation of NSD2 in human KMS-11 cells at 0.1 to 2 uM by Western blot analysis; format: cell-based; settings: dose 0.1-2 µM
KMS-11 [11] = test: Induction of primary alkylamine-tethering degradation of NSD1 in human KMS-11 cells at 0.1 to 2 uM by Western blot analysis; format: cell-based; settings: dose 0.1-2 µM
22Rv1 = test: Induction of primary alkylamine-tethering degradation of NSD2 in human 22Rv1 cells assessed as decrease in H3K36 methylation upto 8 uM by Western blot analysis; format: cell-based
KMS-11 [12] = test: Induction of primary alkylamine-tethering degradation of NSD2 in human KMS-11 cells assessed as decrease in PAK1 mRNA level at 1.25 to 2.5 uM incubated for 2 days by qPCR analysis; format: cell-based; settings: dose 1.25-2.5 µM, time 2.0 day
KMS-11 [13] = test: Induction of primary alkylamine-tethering degradation of NSD2 in human KMS-11 cells assessed as decrease in BACE2 mRNA level at 1.25 to 2.5 uM incubated for 2 days by qPCR analysis; format: cell-based; settings: dose 1.25-2.5 µM, time 2.0 day
[14] = biological target: T1, Histone-lysine N-methyltransferase NSD2 (Homo sapiens) (UniProt O96028); test: Induction of primary alkylamine-tethering degradation of NSD2 RE-IIBP isoform in human KMS-11 cells upto 5 uM by Western blot analysis; format: cell-based
T1 sequence (whole entry): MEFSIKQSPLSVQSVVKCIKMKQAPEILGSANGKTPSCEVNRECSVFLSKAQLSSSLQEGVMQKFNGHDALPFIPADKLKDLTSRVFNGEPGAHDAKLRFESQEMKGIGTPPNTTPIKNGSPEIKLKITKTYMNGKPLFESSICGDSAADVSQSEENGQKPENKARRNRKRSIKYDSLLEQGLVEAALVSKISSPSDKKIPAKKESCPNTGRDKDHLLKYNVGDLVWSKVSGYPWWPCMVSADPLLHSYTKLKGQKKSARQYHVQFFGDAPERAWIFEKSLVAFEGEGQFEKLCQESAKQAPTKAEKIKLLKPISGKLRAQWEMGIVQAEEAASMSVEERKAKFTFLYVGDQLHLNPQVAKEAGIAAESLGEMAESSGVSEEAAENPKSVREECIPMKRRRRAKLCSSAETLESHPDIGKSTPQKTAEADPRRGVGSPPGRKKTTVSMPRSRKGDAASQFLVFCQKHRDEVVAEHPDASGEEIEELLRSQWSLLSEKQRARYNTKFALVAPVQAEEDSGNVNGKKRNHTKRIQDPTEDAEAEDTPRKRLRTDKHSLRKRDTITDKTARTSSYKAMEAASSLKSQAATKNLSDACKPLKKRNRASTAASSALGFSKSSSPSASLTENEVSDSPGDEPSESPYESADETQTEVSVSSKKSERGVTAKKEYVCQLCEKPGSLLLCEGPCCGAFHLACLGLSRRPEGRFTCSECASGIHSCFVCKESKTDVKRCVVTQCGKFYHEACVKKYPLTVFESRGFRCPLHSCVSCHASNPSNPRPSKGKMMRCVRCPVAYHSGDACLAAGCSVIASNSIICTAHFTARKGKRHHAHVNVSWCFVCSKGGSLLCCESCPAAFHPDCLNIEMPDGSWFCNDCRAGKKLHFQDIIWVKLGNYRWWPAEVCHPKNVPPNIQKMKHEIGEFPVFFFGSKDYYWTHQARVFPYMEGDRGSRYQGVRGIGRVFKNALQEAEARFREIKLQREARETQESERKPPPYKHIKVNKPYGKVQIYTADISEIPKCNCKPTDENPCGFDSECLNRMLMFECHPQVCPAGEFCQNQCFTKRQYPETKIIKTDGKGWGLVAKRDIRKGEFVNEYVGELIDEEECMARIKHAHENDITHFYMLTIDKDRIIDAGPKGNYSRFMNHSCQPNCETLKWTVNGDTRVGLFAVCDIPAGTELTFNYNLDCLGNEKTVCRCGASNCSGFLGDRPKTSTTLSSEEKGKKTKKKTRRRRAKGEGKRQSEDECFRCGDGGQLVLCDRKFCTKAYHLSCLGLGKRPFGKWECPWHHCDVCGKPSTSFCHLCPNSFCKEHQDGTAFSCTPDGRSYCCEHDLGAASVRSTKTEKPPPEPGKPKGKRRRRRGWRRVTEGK

KMS-11 [15] = test: (§1) Induction of primary alkylamine-tethering degradation of NSD2 Long isoform in human KMS-11 cells by Western blot analysis; format: cell-based; settings: dose <= 5.0 µM
[16] = as §1; format: cell-based
KMS-11 [17] = test: Induction of primary alkylamine-tethering degradation of NSD2 in human KMS-11 cells assessed as decrease in JAM2 mRNA level at 1.25 to 2.5 uM incubated for 2 days by qPCR analysis; format: cell-based; settings: dose 1.25-2.5 µM, time 2.0 day
KMS-11 [18] = test: Induction of primary alkylamine-tethering degradation of NSD2 in human KMS-11 cells at 5 uM by Western blot analysis; format: cell-based; settings: time 6-48 hrs
KMS-11 [19] = test: Induction of primary alkylamine-tethering degradation of NSD2 in human KMS-11 cells assessed as decrease in IGF2BP2 mRNA level at 1.25 to 2.5 uM incubated for 2 days by qPCR analysis; format: cell-based; settings: dose 1.25-2.5 µM, time 2.0 day
[20] = biological target: T1, Histone-lysine N-methyltransferase NSD2 (Homo sapiens); test: Induction of primary alkylamine-tethering degradation of NSD2 RE-IIBP isoform in human KMS-11 cells at 0.1 to 2 uM by Western blot analysis; format: cell-based; settings: dose 0.1-2 µM
KMS-11 [21] = test: Induction of primary alkylamine-tethering degradation of NSD2 Long isoform in human KMS-11 cells at 0.1 to 2 uM by Western blot analysis; format: cell-based; settings: dose 0.1-2 µM
KMS-11 [22] = test: Induction of primary alkylamine-tethering degradation of NSD2 in human KMS-11 cells assessed as decrease in RRAS2 mRNA level at 1.25 to 2.5 uM incubated for 2 days by qPCR analysis; format: cell-based; settings: dose 1.25-2.5 µM, time 2.0 day
KMS-11 [23] = test: Induction of primary alkylamine-tethering degradation of NSD2 Long isoform in human KMS-11 cells upto 5 uM by Western blot analysis; format: cell-based
[24] = biological target: T2, Histone-lysine N-methyltransferase NSD2 (Homo sapiens, UniProt O96028); test: Binding affinity to CM5 chip-immobilizes NSD2 (unknown origin) assessed as dissociation constant by SPR analysis
T2 sequence (O96028 whole entry): T1 sequence (whole entry)

KMS-11 [25] = test: Induction of primary alkylamine-tethering degradation of NSD3 in human KMS-11 cells at 0.1 to 2 uM by Western blot analysis; format: cell-based; settings: dose 0.1-2 µM
KMS-11 [26] = test: Induction of primary alkylamine-tethering degradation of NSD2 in human KMS-11 cells assessed as decrease in CA2 mRNA level at 1.25 to 2.5 uM incubated for 2 days by qPCR analysis; format: cell-based; settings: dose 1.25-2.5 µM, time 2.0 day
KMS-11 [27] = test: Induction of primary alkylamine-tethering degradation of NSD2 in human KMS-11 cells assessed as decrease in MET mRNA level at 1.25 to 2.5 uM incubated for 2 days by qPCR analysis; format: cell-based; settings: dose 1.25-2.5 µM, time 2.0 day
KMS-11 [28] = test: Induction of primary alkylamine-tethering degradation of NSD2 in human KMS-11 cells assessed as decrease in CR2 mRNA level at 1.25 to 2.5 uM incubated for 2 days by qPCR analysis; format: cell-based; settings: dose 1.25-2.5 µM, time 2.0 day
[29] = biological target: T2, Histone-lysine N-methyltransferase NSD2; test: (§2) Induction of primary alkylamine-tethering degradation of NSD2 RE-IIBP isoform in human KMS-11 cells by Western blot analysis; format: cell-based
[30] = biological target: T1, Histone-lysine N-methyltransferase NSD2 (Homo sapiens); test: as §2; format: cell-based; settings: dose <= 5.0 µM

Sequence of von Hippel-Lindau disease tumor suppressor/Histone-lysine N-methyltransferase NSD2 (Homo sapiens) (P40337 whole entry, looked up, one chain of several): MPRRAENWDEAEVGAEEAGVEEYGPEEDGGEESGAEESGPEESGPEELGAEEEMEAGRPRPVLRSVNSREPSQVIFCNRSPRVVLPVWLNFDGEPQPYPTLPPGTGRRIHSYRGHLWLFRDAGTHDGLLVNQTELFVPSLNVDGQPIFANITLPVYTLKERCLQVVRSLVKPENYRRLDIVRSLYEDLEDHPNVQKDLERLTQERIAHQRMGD

SMILES: Cc1ncsc1-c1ccc([C@H](C)NC(=O)[C@@H]2C[C@@H](O)CN2C(=O)[C@@H](NC(=O)CCCCCCCCCCCNC(=O)COc2cc(-c3cc(Cn4cnc5c(N)ncnc54)c(N4CCCC(N)(CC(F)F)C4)cn3)ccc2F)C(C)(C)C)cc1 (some centres not stated)
- Activity [1]: Active

SMILES: NCCCCCCCCCCCNC(=O)COc1cc(-c2cc(Cn3cnc4c(N)ncnc43)c(N3CCCC(N)(CC(F)F)C3)cn2)ccc1F (racemic)
- Activity (KMS-11 [2]): Active

SMILES: Nc1ncnc2c1ncn2Cc1cc(-c2ccc(F)c(F)c2)ncc1N1CCC[C@](N)(CC(F)F)C1
- hepatic extraction ratio at 1 µM [3]: 0.898
- IC50 (KMS-11 [4]): 4.7 µM
- IC50 [5]: 8.45 µM
- half-life at 1 µM [6]: 22.3 min
- solubility at 4 h [7]: 490 µg/mL (≈ 979 µM)
- CLhep predicted at 1 µM [8]: 18.6 mL/min/kg

SMILES: Nc1ncnc2c1ncn2Cc1cc(-c2ccc(F)c(OCC(=O)NCCCCCCCCCCCNC(=O)c3ccccc3)c2)ncc1N1CCC[C@](N)(CC(F)F)C1
- Activity (KMS-11 [2]): Not active; Exhibited Minimal Activity

SMILES: NCCCCCCCCCCCNC(=O)COc1cc(-c2cc(Cn3cnc4c(N)ncnc43)c(N3CCC[C@](N)(CC(F)F)C3)cn2)ccc1F
- Activity (KMS-11 [9]): Active
- hepatic extraction ratio at 1 µM [3]: 0.973
- Activity (KMS-11 [10]): Active
- Activity (KMS-11 [11]): Not active; Exhibited Moderate Degradation
- IC50 (KMS-11 [4]): 0.9 µM
- Activity (22Rv1): Active
- Activity (KMS-11 [12]): Active
- Activity (KMS-11 [13]): Active
- Activity [14]: 80%
- IC50 [5]: > 100 µM
- Activity (KMS-11 [15]): Dose-dependent-effect
- DC50 [16]: 1.48 µM
- Activity (KMS-11 [17]): Active
- Activity (KMS-11 [18]): Time-dependent-effect
- Activity (KMS-11 [19]): Active
- half-life at 1 µM [6]: 5.37 min
- Activity [20]: Active
- solubility at 4 h [7]: 470 µg/mL (≈ 648 µM)
- Activity (KMS-11 [21]): Active
- Activity (KMS-11 [22]): Active
- Activity (KMS-11 [23]): 80%
- Kd [24]: 8.77 µM
- Activity (KMS-11 [25]): inactive
- Activity (KMS-11 [26]): Active
- CLhep predicted at 1 µM [8]: 20.1 mL/min/kg
- Activity (KMS-11 [27]): Active
- Activity (KMS-11 [28]): Active
- DC50 [29]: 0.8 µM
- Activity [30]: Dose-dependent-effect

SMILES: NCCCCCNC(=O)COc1cc(-c2cc(Cn3cnc4c(N)ncnc43)c(N3CCC[C@](N)(CC(F)F)C3)cn2)ccc1F
- Activity (KMS-11 [2]): inactive

SMILES: NCCCCCCCCCNC(=O)COc1cc(-c2cc(Cn3cnc4c(N)ncnc43)c(N3CCC[C@](N)(CC(F)F)C3)cn2)ccc1F
- Activity (KMS-11 [2]): inactive

SMILES: CNCCCCCCCCCCCNC(=O)COc1cc(-c2cc(Cn3cnc4c(N)ncnc43)c(N3CCC[C@](N)(CC(F)F)C3)cn2)ccc1F
- Activity (KMS-11 [2]): Not active; Exhibited Minimal Activity

SMILES: NCCCCCCCNC(=O)COc1cc(-c2cc(Cn3cnc4c(N)ncnc43)c(N3CCC[C@](N)(CC(F)F)C3)cn2)ccc1F
- Activity (KMS-11 [2]): inactive

SMILES: NCCCCCCCCCCCCNC(=O)COc1cc(-c2cc(Cn3cnc4c(N)ncnc43)c(N3CCC[C@](N)(CC(F)F)C3)cn2)ccc1F
- Activity (KMS-11 [2]): inactive

SMILES: NCCCCCCNC(=O)COc1cc(-c2cc(Cn3cnc4c(N)ncnc43)c(N3CCC[C@](N)(CC(F)F)C3)cn2)ccc1F
- Activity (KMS-11 [2]): inactive

SMILES: NCCCNC(=O)COc1cc(-c2cc(Cn3cnc4c(N)ncnc43)c(N3CCC[C@](N)(CC(F)F)C3)cn2)ccc1F
- Activity (KMS-11 [2]): inactive

SMILES: NCCCCCCCCCCCNC(=O)COc1cc(-c2cc(Cn3cnc4c(N)ncnc43)c(N3CCC[C@@](N)(CC(F)F)C3)cn2)ccc1F
- Activity (KMS-11 [10]): inactive
- Kd [24]: > 100 µM
